According to patent publication US7960549B2, “Solid forms of a chemokine receptor antagonist and methods of use thereof” (priority 2004, dated 2011):
Counter-ions that a name gives are not always drawn.

Columns and labels:
Format in all cases: physicochemical
[1] = Differential scanning calorimetry (DSC)
Description: Differential scanning calorimetry (DSC) analyses are performed using a T.A Instruments Q1000 thermal analyser. Analyses are carried out using nitrogen purge gas flowing at an average rate of 50 ml/min. A mechanical compressor cools the system, and equilibrates the instruments being used at ambient temperature between analyses. […] Energy calibration is performed with a certified indium calibrator (melting enthalpy of 28.45 J/g), applying a heating rate of 5° C./min. The temperatures identified from DSC scans of a particular sample are accurate to within ±3° C. […] Modulated temperature differential scanning calorimetry (MTDSC) is also used since deconvolution of the total heat flow into reversing and non-reversing heat flows allows the transitions to be easily identified. The samples were submitted to the same experimental temperature program: after the equilibration of the sample at −5° C., the samples were heated through a modulated program from −5° C. to 210° C. at a rate of 1° C./min. […] Experiments are performed using crimped aluminium sample pans or open pans in some cases. The quantity of product analysed is typically between 2 and 13 mg.

[2] = Water sorption/desorption cycling (dynamic vapor sorption, DVS) at 25° C., with XRPD before and after; conditions: for XRPD before and after water sorption/desorption cycling: two consecutive cycles, 0% to 90% relative humidity
Description: Water sorption measurements are performed on a DVS-1 automated gravimetric vapor sorption analyser (Surface Measurement Systems Ltd., London, UK). The DVS-1 measures the uptake and loss of vapor gravimetrically using a Cahn D200 recording ultra-microbalance with a mass resolution of ±0.1 μg. The relative humidity around the sample is controlled by mixing saturated and dry carrier gas streams using mass flow controllers. The temperature is maintained within ±0.1° C. by enclosing the entire system in a temperature-controlled incubator. A sample size between 15 and 20 mg is used. In general, the error in % (w/w) identified in a tested sample is ±0.1% (w/w).
Two protocols are utilized to operate the DVS. In one protocol, a sample is dried at 0% relative humidity (RH) to remove any surface water present and establish a dry, baseline mass. Next, the sample is exposed to the following relative humidity profile: 0%, 10%, 20%, 30%, 40%, 50%, 60%, 70%, 80%, 90%, 80%, 70%, 60%, 50%, 40%, 30%, 20%, 10%, 0%. In some instances, this profile is repeated, yielding 4 sets of data going up and down in RH. In another protocol, the sample is first equilibrated at 40% RH, then it was exposed to the following relative humidity profile: 40%, 50%, 60%, 70%, 80%, 90%, 100%, 90%, 80%, 70%, 60%, 50% 40% 30%, 20% 10%, 0%, 10%, 20%, 30%, 40%. […] If equilibrium state is not reached, the change in relative humidity took place automatically after 360 or 600 minutes. From the complete moisture sorption and desorption profile, an isotherm is calculated using the DVS Advanced Analysis Suite v3.6. All experiments were performed at 25° C.

[3] = Thermal gravimetric analysis (TGA); conditions: for TGA weight loss of the transition / TGA weight loss transition, interpolated beginning temperature / TGA weight loss transition, temperature of maximum rate of weight loss: sample of the single form (Form H formed from Form E sample); for TGA weight loss transition, interpolated beginning temperature / TGA weight loss transition, temperature of maximum rate of weight loss: ±3° C.
Description: Measurements utilizing thermal gravimetric analysis (TGA) are carried out on a T.A. instruments TGAQ500 analyzer. Mass calibration is performed with 10 and 100 mg certified masses. Temperature calibration is performed with Alumel® and nickel standards (Curie points of respectively 154° C. and 354° C.). Samples are exposed to a constant nitrogen stream of 60 ml/min, and temperature ranges from room temperature to 350° C. at a 5° C./min rate. The quantity of product tested is between 2 and 13 mg. The sample is deposited in an open aluminum sample pan, which is itself placed in a platinum pan. The temperatures identified from TGA scans of a particular sample are accurate to within ±3° C. Simultaneous TGA and DSC measurements are carried out using a […] thermal analysis system produced by the […] corporation. A liquid nitrogen cooling system makes it possible to work at temperatures below 20° C. The emitted gases, upon sample heating, are carried by a transfer capillary tube to a Pfeiffer mass spectrometer, the capillary tube heated to 150° C. The mass spectrometer can analyze molecular fragments at <<m/e>> ratios between 1 and 200 uma. A sample with a mass between 1 and 27 mg is contained in an open concave aluminum sample pan (75 μL capacity) exposed to a nitrogen stream. The sample is heated at a rate of 1 or 5° C./min.

[4] = Prolonged exposure to fixed relative humidity or rinsing with water, XRPD before and after; conditions: for crystal form by XRPD after exposure to a relative humidity of 97.5%: month long exposure, ambient temperature
[5] = Controlled temperature (isothermal) X-ray powder diffraction: thermal stability of the crystalline form; conditions: dry nitrogen; for form conversion as the temperature is raised (isothermal XRPD): ambient to 210° C.
Description: X-ray powder diffraction (XRPD) is performed on various samples of the Citrate Salt using one of three instruments. XRPD measurements with Instrument 1 utilize a Siemens-Bruker D5000 Matic powder diffractometer with a Bragg-Brentano (vertical θ-2θ configuration) parafocusing geometry. X-rays are produced from a sealed cobalt anode running at 40 kV and 30 mA. Two lines are typically emitted: CoKα1 (λ=1.7890 Å) and CoKα2 (λ=1.7929 Å). An iron β-filter limits the CoKβ (λ=1.6208 Å) radiation to about 1% of the diffracted beam at the detector. The primary beam passes through a parallel plate collimator (0.2 mm Soller slits), then through a divergence slit (0.2 mm). Diffracted X-rays are detected with a Braun 50 M multichannel linear detector having a 10°-wide detection window in angle 2θ. Scans are performed from 1.5° to 50.0° in 2θ, the scan time being 10 to 40 seconds per degree in 2θ. The error in the 2θ locations are typically within ±0.10 degrees.
In Instrument 3, XRPD measurements are performed at different temperatures to elucidate the evolution of crystal structure with temperature. Tests are carried out with a Siemens-Bruker D5000 diffractometer equipped with the Bragg Brentano parafocusing (θ-θ) geometry and an Anton-Paar TTK temperature chamber. Measurements utilize dry nitrogen or nitrogen streams having a particular humidity. The instrument specifications are substantially similar to the Siemens-Bruker D5000 Matic instrument described above (Instrument 1). Temperature is allowed to rise at a rate of 0.05° C./sec. Scans are recorded under the following conditions: a 1.5 to 50.0 degree scan in angle 2θ, 10 to 20 seconds counting time per degree in 2θ. Data are acquired in isotherm mode when the requested temperature is reached.

[6] = Crystallization of the Citrate Salt (Form A exposed to solvent systems under the conditions of Table 9): form(s) obtained
Description: In other particular embodiments, solvents such as ethanol, methanol/heptane, MEK/water, n-propanol, isopropanol, isopropanol/water, acetonitrile/water, or methanol may be used to crystallize Form B. More particularly, Form B may be created by taking samples of Form A and exposing them to one of the solvent systems listed above. […] In each instance, Form A of the Citrate Salt is exposed to a solvent or solvent system under the particular conditions listed in Table 9 to generate the particular form(s) or amorphous Citrate Salt.

[7] = heating rate 5° C./min, A, B, H: melting/decomposition, E: loss of water and conversion to Form H, ±3° C.
[8] = sample including Forms A and C, 5° C./min, Form C: conversion to Form A, Form A: melting/decomposition

## CC(C)(O)c1ccc2c(c1)/C(=C/CCN1CC[C@](O)(c3ccc(Cl)cc3)C(C)(C)C1)c1cccnc1CO2 [Form B, citrate salt of (S)-4-(4-Chloro-phenyl)-1-{3-[7-(1-hydroxy-1-methyl-ethyl)-11H-10-oxa-1-aza-dibenzo[a,d]cyclohepten-5-ylidene]-propyl}-3,3-dimethyl-piperidin-4-ol]
[1]; heating rate 1° C./min
  DSC endothermic transition, Tmax: 179 °C
  DSC endothermic transition, interpolated beginning temperature: 174 °C
[1]; [7]
  DSC endothermic transition, Tmax: 189 °C
  DSC endothermic transition, interpolated beginning temperature: 184 °C
[2]; 25° C.
  change in moles of water per mole of anhydrous crystal over relative humidity 0% to 90%: about 0.4 moles of water per mole of anhydrous crystal
  XRPD before and after water sorption/desorption cycling: no structural change
[2]; 25° C., dry crystal basis, known to within ±0.1%
  change in mass as the relative humidity is changed between 0% and 90%: about 0.9%
[3]; heating rate 5° C./min
  TGA weight loss from ambient temperature to about 100° C.: No weight loss is detected
  TGA weight loss of the transition: about 27.5 % (w/w)
  TGA weight loss transition, interpolated beginning temperature: about 180 °C
  TGA weight loss transition, temperature of maximum rate of weight loss: 192 °C
[4]
  stability when rinsed with water, XRPD before and after the rinsing: stable to 100% relative humidity
  crystal form by XRPD after exposure to a relative humidity of 97.5%: does not change form

## CC(C)(O)c1ccc2c(c1)/C(=C/CCN1CC[C@](O)(c3ccc(Cl)cc3)C(C)(C)C1)c1cccnc1CO2 [Form C, citrate salt of (S)-4-(4-Chloro-phenyl)-1-{3-[7-(1-hydroxy-1-methyl-ethyl)-11H-10-oxa-1-aza-dibenzo[a,d]cyclohepten-5-ylidene]-propyl}-3,3-dimethyl-piperidin-4-ol]
[1]; heating rate 20° C./min
  DSC endothermic transition between Form C and Form A, Tmax: 171 °C
  DSC endothermic transition between Form C and Form A, interpolated beginning temperature: 165 °C
[1]; [8]
  DSC endothermic transition, Tmax: 166 °C
  DSC endothermic transition, interpolated beginning temperature: about 161 °C
[2]; 25° C.
  XRPD before and after water sorption/desorption cycling: no structural modification
[3]; sample including Forms A and C
  TGA weight loss: about 8.22 % (w/w)
  TGA weight loss, temperature of maximum rate of weight loss: 162 °C
[3]; sample including Forms A and C, Form C: conversion away from Form C, Form A: decomposition/melting
  TGA weight loss, interpolated beginning temperature: 157 °C
[5]
  form conversion as the temperature is raised (isothermal XRPD): conversion of the Form C crystals to Form A

## CC(C)(O)c1ccc2c(c1)/C(=C/CCN1CC[C@](O)(c3ccc(Cl)cc3)C(C)(C)C1)c1cccnc1CO2 [Form E, citrate salt of (S)-4-(4-Chloro-phenyl)-1-{3-[7-(1-hydroxy-1-methyl-ethyl)-11H-10-oxa-1-aza-dibenzo[a,d]cyclohepten-5-ylidene]-propyl}-3,3-dimethyl-piperidin-4-ol]
[1]; [7]
  DSC endothermic transition, Tmax: 67 °C
  DSC endothermic transition, interpolated beginning temperature: 45 °C
[1]; heating rate 5° C./min, transition 2411, conversion of Form E to Form H
  DSC endothermic transition, integrated enthalpy change: 178.3 J/g
[2]; 25° C.
  weight change / water uptake between 10% and 90% relative humidity: about 2.28 % (w/w)
  weight gain / water uptake as relative humidity is increased from 0% to 10%: about 5.13 % (w/w)
  XRPD before and after water sorption/desorption cycling: a structure corresponding with Form H after the cycling
[2]; ambient temperatures
  behaviour under 10% relative humidity (observed at 0% relative humidity): fully transforms into form H
[3]; heating rate 5° C./min
  TGA weight loss of the transition: 6.14 % (w/w)
  TGA weight loss transition, interpolated beginning temperature: 52 °C
  TGA weight loss transition, temperature of maximum rate of weight loss: 64 °C
[5]
  form conversion as the temperature is raised (isothermal XRPD): converts to Form B
[5]; sample containing Forms E, F, and G, steps of 10° C.
  loss of stability (lines unique to the form disappear), isothermal XRPD: above 50 °C

## CC(C)(O)c1ccc2c(c1)/C(=C/CCN1CC[C@](O)(c3ccc(Cl)cc3)C(C)(C)C1)c1cccnc1CO2 [batch F1]
[4]
  stability when rinsed with water, XRPD before and after the rinsing: loss of lines of Form F and diminution of lines of Form G, while the lines of Form E grow
  crystal form by XRPD after exposure to a relative humidity of 97.5%: loss of lines of Form F and diminution of lines of Form G, while the lines of Form E grow
[4]; about one month
  crystal form by XRPD after exposure to a relative humidity of 0%: a mixture of Forms E and B

## CC(C)(O)c1ccc2c(c1)/C(=C/CCN1CC[C@](O)(c3ccc(Cl)cc3)C(C)(C)C1)c1cccnc1CO2 [Citrate Salt, citrate salt of (S)-4-(4-Chloro-phenyl)-1-{3-[7-(1-hydroxy-1-methyl-ethyl)-11H-10-oxa-1-aza-dibenzo[a,d]cyclohepten-5-ylidene]-propyl}-3,3-dimethyl-piperidin-4-ol]
[6]; Crystallization after dissolution THF, followed by a slow evaporation at ambient temperature and atmospheric pressure
  Form(s) identified: A + D
[6]; Crystallization after dissolution at high temperature in THF/water
  Form(s) identified: A + C
[6]; Dissolution at ambient temperature in DMSO/water
  Form(s) identified: Amorphous
[6]; Dissolution in THF/water and azeotropic distillation (isolation in water)
  Form(s) identified: Amorphous
[6]; Dissolution in dichloromethane/methanol, followed by a quick evaporation at ambient temperature and low pressure
  Form(s) identified: Amorphous
[6]; Maturation in THF of Forms A and B at ambient temperature
  Form(s) identified: A + C
[6]; Maturation in water of the amorphous form at ambient temperature
  Form(s) identified: E + F + G
